Values of other authors in US7560230B2, “Method for determining susceptibility of tumor to treatment with anti-neoplastic agent” (Threshold Pharmaceuticals, Inc., priority 2003, dated 2009).

Columns and labels:
Conditions in all cases: sodium-dependent transport
SGLT2 = biological target: T1, SGLT2 (Homo sapiens, UniProt P31639)
T1 sequence (P31639 1-672): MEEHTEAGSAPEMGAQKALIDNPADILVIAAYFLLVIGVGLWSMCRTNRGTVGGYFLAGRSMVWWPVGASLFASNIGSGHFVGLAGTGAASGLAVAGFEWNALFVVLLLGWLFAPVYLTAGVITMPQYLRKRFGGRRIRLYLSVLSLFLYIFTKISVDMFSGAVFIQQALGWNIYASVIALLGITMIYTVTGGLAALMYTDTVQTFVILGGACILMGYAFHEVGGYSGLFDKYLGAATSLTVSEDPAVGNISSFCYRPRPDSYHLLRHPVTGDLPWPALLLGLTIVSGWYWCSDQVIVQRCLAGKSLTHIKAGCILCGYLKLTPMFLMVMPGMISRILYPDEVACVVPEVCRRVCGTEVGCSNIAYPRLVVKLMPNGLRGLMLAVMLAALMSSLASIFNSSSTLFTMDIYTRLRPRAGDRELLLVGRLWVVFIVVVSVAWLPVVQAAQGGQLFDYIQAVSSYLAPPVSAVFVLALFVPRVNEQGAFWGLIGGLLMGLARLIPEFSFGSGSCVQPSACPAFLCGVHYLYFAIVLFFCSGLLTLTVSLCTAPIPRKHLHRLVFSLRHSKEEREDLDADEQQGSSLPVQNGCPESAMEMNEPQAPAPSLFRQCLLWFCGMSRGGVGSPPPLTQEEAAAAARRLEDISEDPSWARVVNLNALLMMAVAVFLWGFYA

SGLT1 = biological target: T2, SGLT1 (Homo sapiens, UniProt P13866)
T2 sequence (P13866 1-664): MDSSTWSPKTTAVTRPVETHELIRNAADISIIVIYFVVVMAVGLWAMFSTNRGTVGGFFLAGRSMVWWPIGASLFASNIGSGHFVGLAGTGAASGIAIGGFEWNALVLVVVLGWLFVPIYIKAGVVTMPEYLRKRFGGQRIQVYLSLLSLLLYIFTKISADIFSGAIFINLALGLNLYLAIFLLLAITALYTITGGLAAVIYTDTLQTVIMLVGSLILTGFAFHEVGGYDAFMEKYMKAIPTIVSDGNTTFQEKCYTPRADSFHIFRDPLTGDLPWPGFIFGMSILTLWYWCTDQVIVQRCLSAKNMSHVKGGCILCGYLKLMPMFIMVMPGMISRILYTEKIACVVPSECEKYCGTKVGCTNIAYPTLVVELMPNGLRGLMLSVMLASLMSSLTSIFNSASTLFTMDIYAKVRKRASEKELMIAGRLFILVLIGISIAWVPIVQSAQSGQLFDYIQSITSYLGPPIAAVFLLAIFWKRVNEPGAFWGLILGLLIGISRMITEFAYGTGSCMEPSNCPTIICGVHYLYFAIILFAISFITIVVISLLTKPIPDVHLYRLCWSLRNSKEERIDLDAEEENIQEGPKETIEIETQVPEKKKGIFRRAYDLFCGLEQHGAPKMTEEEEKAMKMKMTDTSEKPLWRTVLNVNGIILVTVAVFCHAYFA

SGLT3 = system: SGLT3

Structure (SMILES): CO[C@H]1O[C@H](CO)[C@@H](O)[C@H](O)[C@H]1O [a-MDG, a-methyl-D-glucoside]
- apparent affinity (K0.5) (SGLT2): 2 mM
- apparent affinity (K0.5) (SGLT1): 0.4 mM
- apparent affinity (K0.5) (SGLT3): 2 mM
